≈ marks a conversion by molar mass, not a printed value. Starred links: 1 amine or outer side, 2 acyl side, 3 side chain; linkers in the order of their positions; H or OH if unused. Positions of bridges follow the written chain, without caps; N, C: chain ends. Residues, ends and D or L forms follow the SMILES beside them. Chains are numbered I, II in the order given. X1 = O=C(c1ccc(Oc2nc(NCCN[*:2])nc(NCCN[*:3])n2)cc1)[*:1]
Assays:
E. coli 13974 = test: microbe, parasite or virus in culture; assay type: cell-based; settings: 13974, 24 h
Method: (§1) E. coli ATCC 25922, P. aeruginosa ATCC 27853, S. aureus ATCC 29213, P. aeruginosa 666 SJD (ciprofloxacin-resistant), P. aeruginosa P12, P13, P15, P16 and P17 (MDR isolates) and E. coli 7987, 5545, 8248, 13974, 7259 and 208691 (MDR isolates) from our own collection were included in the present study.
(§2) The antimicrobial activity of the dendrimers was evaluated against E. coli ATCC 25922, P. aeruginosa ATCC 27853 and S. aureus ATCC 29213 strains. The MIC values were determined by the broth microdilution method. Briefly, the different strains were grown in Muller Hinton broth cation adjusted (MHBCA) medium overnight at 37 °C with shaking at 200 rpm. The bacterial cultures were then adjusted to OD625nm of 0.08–0.1, and 5 μL of each diluted suspension was added to 96-well plates previously filled with MHBCA and serially diluted peptides. Plates were incubated for 24 h at 37 °C. Finally, the MIC was determined macroscopically, based on the visual turbidity of the wells.

E. coli 208691 = test: microbe, parasite or virus in culture; assay type: cell-based; settings: 208691, 24 h
Method: as §1, §2

E. coli 5545 = test: microbe, parasite or virus in culture; assay type: cell-based; settings: 5545, 24 h
Method: as §1, §2

E. coli 7259 = test: microbe, parasite or virus in culture; assay type: cell-based; settings: 7259, 24 h
Method: as §1, §2

E. coli 7987 = test: microbe, parasite or virus in culture; assay type: cell-based; settings: 7987, 24 h
Method: as §1, §2

E. coli 8248 = test: microbe, parasite or virus in culture; assay type: cell-based; settings: 8248, 24 h
Method: as §1, §2

P. aeruginosa P12 = test: microbe, parasite or virus in culture; assay type: cell-based; settings: P12, 24 h
Method: as §1, §2

P. aeruginosa P13 = test: microbe, parasite or virus in culture; assay type: cell-based; settings: P13, 24 h
Method: as §1, §2

P. aeruginosa P15 = test: microbe, parasite or virus in culture; assay type: cell-based; settings: P15, 24 h
Method: as §1, §2

P. aeruginosa P16 = test: microbe, parasite or virus in culture; assay type: cell-based; settings: P16, 24 h
Method: as §1, §2

P. aeruginosa P17 = test: microbe, parasite or virus in culture; assay type: cell-based; settings: P17, 24 h
Method: as §1, §2

L-929 fibroblasts = test: Cytotoxicity, resazurin reduction; assay type: cell-based, murine; settings: L-929 cells, 24 h, resazurin fluorescence
Method: The cytotoxicity assay was performed in the human hepatocellular carcinoma cell line Hep G2 ATCC and murine L-929 fibroblasts (NCTC clone 929, ECACC 88102702) obtained from the laboratory of Dr. Pérez-Tomás (Cancer Cell Biology, University of Barcelona). The cytotoxicity of the selected peptides was determined by measuring the intracellular reduction of resazurin sodium salt (Sigma-Aldrich, St. Louis, MO, USA). Briefly, HepG2 and L-929 cells were grown in RPMI 1640 or MEM medium, respectively (Biochrom AG, Berlin, Germany), supplemented with 10% fetal bovine serum. Cells from pre-confluent cultures were harvested with trypsin-EDTA and maintained at 37 °C in 5% CO2. Then, 100 µL of each cell line was seeded into 96-well flat-bottomed microplates and incubated for 24 h at 37 °C. The medium was then replaced with 200 μL of medium containing the dendrimers at concentrations ranging from 64 to 0.125 μg/mL and the microplates were incubated for 24 h at 37 °C. Next, 20 μL of resazurin was added to each well and the plates were incubated under the same conditions for 24 h. Fluorescence was measured using a multiwell scanning spectrophotometer at an excitation wavelength of 530 nm and an emission wavelength of 590 nm. Cytotoxicity was then calculated by comparing the fluorescence of the treated and untreated cells (Figure S22).

E. coli ATCC 25922 = assay type: cell-based; settings: for effect on growth curve (in words): E. coli ATCC 25922, TSB, MIC, ½ MIC and ¼ MIC, 37 °C, OD 850 nm
Method: The real-time effect of the peptide dendrimers was examined on the growth curves of E. coli ATCC 25922 and P. aeruginosa ATCC 27853. Volumes of 10 mL of TSB liquid cultures containing 1–5 × 10^5 CFU/mL in the logarithmic phase were adjusted in Falcon tubes. Peptide dendrimers were then added at MIC and sub-inhibitory concentrations (½ MIC and ¼ MIC). Incubation was performed in RTS-1C real-time reverse spin bioreactors RTS-1 (Biosan) for 24 h at 37 °C and 2000 rpm. Growth was measured noninvasively as optical density (OD 850 nm) every 15 min.

[1] = test system: E. coli susceptible strains; test: Checkerboard assay; assay type: cell-based
Method: (§3) A checkerboard assay was used to determine the fractional inhibitory concentrations (FICs) of dendrimers in combination with conventional antibiotics. Briefly, each well in a 96-well plate was inoculated with 100 µL of a bacterial inoculum of 1 × 10^6 CFU/mL, and the plates were incubated at 37 °C for 24 h. The FIC was calculated after identifying the first well in each row without growth (MIC), according to the following formula: FIC of drug A (FIC A) = (MIC of drug A in combination)/(MIC of A); FIC of drug B (FIC B) = (MIC of drug B in combination)/(MIC of B). The FIC index (FICI) values were calculated by adding the FIC of drug A to the FIC of drug B [46]. The interpretation of the (FICI) was the following: FICI ≤ 0.5, synergy; 0.5 < FICI ≤ 1, additivity; 1 < FICI ≤ 2 […].

MDR E. coli = test: Checkerboard assay; assay type: cell-based; settings: for interaction with ciprofloxacin: MDR E. coli; for interaction with rifampicin: strain not stated at this place, b42: results for rifampin quite similar to ciprofloxacin
Method: as §3

[2] = test system: P. aeruginosa susceptible and resistant strains; test: Checkerboard assay; assay type: cell-based; settings: both susceptible and resistant strains
Method: as §3

| Compound | MIC (E. coli 13974) | MIC (E. coli 208691) | MIC (E. coli 5545) | MIC (E. coli 7259) | MIC (E. coli 7987) | MIC (E. coli 8248) | MIC (P. aeruginosa P12) | MIC (P. aeruginosa P13) | MIC (P. aeruginosa P15) | MIC (P. aeruginosa P16) | MIC (P. aeruginosa P17) | % Cytotoxicity at 64µg/mL, L-929 (L-929 fibroblasts) | MIC value deduced from microfermentor experiments (E. coli ATCC 25922; ATCC 25922, 24 h) | effect on growth curve (in words) (E. coli ATCC 25922; 24 h) | concentration that completely inhibited detectable growth (E. coli ATCC 25922; E. coli ATCC 25922, growth curves, 24 h) | interaction with ciprofloxacin [1] | interaction with ciprofloxacin (MDR E. coli) | interaction with rifampicin (MDR E. coli) | interaction with ciprofloxacin [2] |
| --- | --- | --- | --- | --- | --- | --- | --- | --- | --- | --- | --- | --- | --- | --- | --- | --- | --- | --- | --- |
| CC(C)C[C@H](NC(=O)c1ccc(Oc2nc(NCCNC(=O)[C@H](CCCCN)NC(=O)[C@H](CC(C)C)NC(=O)[C@H](CCCCN)NC(=O)[C@H](CC(C)C)NC(=O)[C@H](CCCCN)NC(=O)[C@@H](N)CC(C)C)nc(NCCNC(=O)[C@H](CCCCN)NC(=O)[C@H](CC(C)C)NC(=O)[C@H](CCCCN)NC(=O)[C@H](CC(C)C)NC(=O)[C@H](CCCCN)NC(=O)[C@@H](N)CC(C)C)n2)cc1)C(=O)N[C@@H](CCCCN)C(=O)N[C@@H](CC(C)C)C(=O)N[C@@H](CCCCN)C(=O)N[C@@H](CC(C)C)C(=O)N[C@@H](CCCCN)C(N)=O [Dendrimer 1, H-[(LK)3]2-(EDA)2-TA-PHBA-(LK)3-NH2] (I: LKLKLK-NH2 / II: H-LKLKLK / III: H-LKLKLK; linker I:N-II:C-III:C via X1) | 8 mg/L (≈ 3.19 µM) | 32 mg/L (≈ 12.8 µM) | 8 mg/L (≈ 3.19 µM) | 32 mg/L (≈ 12.8 µM) | 8 mg/L (≈ 3.19 µM) | 8 mg/L (≈ 3.19 µM) | >128 mg/L | 64 mg/L (≈ 25.6 µM) | >128 mg/L | 64 mg/L (≈ 25.6 µM) | 16 mg/L (≈ 6.39 µM) | 2.8% | < 2 mg/L | fully inhibited growth at the three concentrations tested | 2 µg/mL | additive effect | synergistic | synergic | additive effect |
| CC(C)C[C@H](NC(=O)[C@H](CCCCN)NC(=O)[C@H](CC(C)C)NC(=O)[C@H](CCCCN)NC(=O)[C@H](CC(C)C)Nc1nc(NCCNC(=O)[C@H](CCCCN)NC(=O)[C@H](CC(C)C)NC(=O)[C@H](CCCCN)NC(=O)[C@H](CC(C)C)NC(=O)[C@H](CCCCN)NC(=O)[C@@H](N)CC(C)C)nc(NCCNC(=O)[C@H](CCCCN)NC(=O)[C@H](CC(C)C)NC(=O)[C@H](CCCCN)NC(=O)[C@H](CC(C)C)NC(=O)[C@H](CCCCN)NC(=O)[C@@H](N)CC(C)C)n1)C(=O)N[C@@H](CCCCN)C(N)=O [Dendrimer 2, H-[(LK)3-EDA]2-TA-(LK)3-NH2] | 8 mg/L (≈ 3.36 µM) | 8 mg/L (≈ 3.36 µM) | 8 mg/L (≈ 3.36 µM) | 2 mg/L (≈ 0.839 µM) | 4 mg/L (≈ 1.68 µM) | 8 mg/L (≈ 3.36 µM) | 32 mg/L (≈ 13.4 µM) | 32 mg/L (≈ 13.4 µM) | 16 mg/L (≈ 6.71 µM) | 32 mg/L (≈ 13.4 µM) | 16 mg/L (≈ 6.71 µM) | 0% |  | full growth inhibition only at the MIC |  | additive effect | synergistic | synergic | additive effect |
